Reference: paper PMC9315260, “Diarylamine-Guided Carboxamide Derivatives: Synthesis, Biological Evaluation, and Potential Mechanism of Action” (Frontiers in Chemistry, 2022)

Test system: A875 cells
Assay: LDH release (cellular necrosis)
Type: cell-based, human
Conditions: 24 h after treatment
Method: From the preliminary analysis of apoptosis, the results encourage us to further investigate the type of cell death induced by the potential compounds (C6 and C11). As we know, the release of LDH is a typical characteristic feature of necrotic cell death, and so which was detected.
A875 cells grown in 96-well plates were treated with serial dilutions of each tested compound for 24 h. The culture media were collected, and the concentrations of LDH were determined based on our previous research ([Huang et al., 2021]).
A875 cells grown in 96-well plates were treated with serial dilutions of each tested compound for 24 h. The culture media were collected, and the concentrations of LDH were determined with an LDH assay kit according to the manufacturer’s instructions (Abcam).

SMILES | release of LDH, in words
O=C(Nc1cccc(C(F)(F)F)c1)c1cccnc1Nc1cccc(C(F)(F)F)c1 [C6, N-(3-(Trifluoromethyl)phenyl)-2-((3-(trifluoromethyl)phenyl)amino)nicotinamide] | significantly increased
O=C(Nc1ccc(Cl)nc1)c1cccnc1Nc1cccc(C(F)(F)F)c1 [C11, N-(6-Chloropyridin-3-yl)-2-((3-(trifluoromethyl)phenyl)amino)nicotinamide] | significantly increased
